Measured values as given in patent US8906953B2, “Pyrrolidine substitute flavones for the treatment of inflammatory disorders” (Piramal Enterprises Limited, priority 2010, dated 2014).
Counter-ions that a name gives are not always drawn.

The compounds below were run on PDE4 (assay: PDE4 inhibition, cAMP fluorescence assay in salbutamol-stimulated U937 cells). Conditions: U937 cells, concentration 0.3 μM, salbutamol 1 μM.
Assay type: cell-based, human
Description: Culture medium was changed every 2-3 days and always 24 hours before harvest. RPMI medium, FBS and Salbutamol were purchased from Sigma-Aldrich (USA). Rolipram was synthesized in the Medicinal Chemistry Department, Piramal Life Sciences Limited.
Rolipram was used as a standard (0.3, 1 and 3 μM). […] Fluorescence measurements were taken with Polarstar Optima (BMG Labtech-Germany).
Relative fluorescence was calculated using the following formula where: RF=Relative Fluorescence, Fo=fluorescent intensity of the blank or buffer control, F=fluorescence of cAMP or sample: RF=(Fo−F)/Fo
A standard curve was plotted using the RF values of the given standards and the values of cAMP corresponding to the test compounds were determined using the standard plot.

Compound	Relative Fluorescence (RF)
COc1ccc(C2CNC(=O)C2)cc1OC1CCCC1 (stereo not drawn) [Rolipram, reference compound]	1.39

Same assay, conditions: U937 cells, concentration 1 μM, salbutamol 1 μM

Compound	Relative Fluorescence (RF)
COc1ccc(C2CNC(=O)C2)cc1OC1CCCC1 (stereo not drawn) [Rolipram, reference compound]	1.56

Same assay, conditions: U937 cells, concentration 3 μM, salbutamol 1 μM

Compound	Relative Fluorescence (RF)
COc1ccc(C2CNC(=O)C2)cc1OC1CCCC1 (stereo not drawn) [Rolipram, reference compound]	1.73

Each compound was assayed on arthritic (CIA) DBA/1J mice (assay: Collagen induced arthritis in mouse). Conditions: Enbrel 3 mg/kg s.c. once daily, 23 days.
Assay type: in vivo
Description: The assay was designed as in reference, J. Exp. Med., 1985, 162, 637-646, the disclosure of which is incorporated herein by reference for the teaching of the assay.
Male DBA/1J mice (originally procured from Jackson Laboratories, USA), aged 8-10 weeks were immunized with an emulsion equivalent to 200 μg of type II collagen in Freund's Complete Adjuvant, injected intradermally at the base of the tail. A booster shot with the same emulsion was given 21 days later. A group of naïve mice was maintained alongside.
From day 23 to day 56, mice were examined daily once for the signs of rheumatoid arthritis, using the Articular Index and paw thickness as parameters. Articular Index scoring was performed employing the following criteria:
Mice with a minimum hind paw score of 2 were inducted into the study.
Mice were randomized into the various study groups and orally administered the vehicle (0.5% CMC, 1 ml/kg), test compound (compound of example 3, 50 mg/kg twice daily) and standard compound (Enbrel, 3 mg/kg, s.c., once daily). […] The dosing of the compounds was done for 23 days.
The following parameters were observed and recorded daily, • 1. Body weight • 2. Articular index • 3. Paw thickness in mm using a tension free caliper • 4. Any significant observation regarding the condition of the animal. […]
The results are graphically depicted in FIG. 3 (Articular index versus days of treatment) and FIG. 4 (Paw thickness versus days of treatment). Data obtained during the course of this study (articular index and paw thickness) was statistically evaluated by applying Mann-Whitney U test.
Mice were humanely euthanized and the hind paws were harvested from each animal, fixed in 10% neutral buffered formalin, decalcified in 5% formic acid and embedded in paraffin. Section […] were stained with either hematoxylin and eosin or safranin 0 and evaluated microscopically. Histopathological changes were scored as follows: mild (score=1), moderate (score=2) or severe (score=3) for the parameters of cellular infiltration, bone erosions and cartilage damage, graded separately. […]

Compound	Severity of disease by articular index and paw thickness
Enbrel	significant reduction in the severity of the disease

These compounds were tested on TNF-α (assay: LPS-induced TNF-α release from hPBMCs (ELISA)). Conditions: Homo sapiens; LPS-stimulated hPBMCs, 5 hours; read-out: Activity (TNF-α) IC50.
Assay type: cell-based
Description: Cytokine production by lipopolysaccharides (LPS) in hPBMCs (human peripheral blood mononuclear cells) was measured as in reference, Physiol. Res. 2003, 52, 593-598, the disclosure of which is incorporated by reference for the teaching of the assay. Blood was collected from healthy donors into Potassium EDTA vacutainer tubes (BID vacutainer). The PBMC were isolated using gradient centrifugation in Histopaque-1077 solution (Sigma). Isolated PBMC were suspended in RPMI 1640 (Rosewell Park Memorial Institute) culture medium (Sigma-Aldrich Fine Chemicals, USA) containing 10% fetal bovine serum (FBS) (JRH, USA), 100 U/mL penicillin (Sigma Chemical Co. St Louis, Mo., USA) and 100 μg/mL streptomycin (Sigma Chemical Co. St Louis, Mo.). The cell concentration was adjusted to 1×10^6 cells/mL. The viability as determined by trypan blue dye exclusion was uniform Ly≧98%. The cell suspension (100 μL) was added to the wells of a 96-well culture plate. Following cell plating, 79 μL of the culture medium and 1 μL of various concentrations of test compounds (compounds of formula 1) (final concentration 0.001, 0.003, 0.005, 0.01, 0.025, 0.03, 0.05, 0.1, 0.25, 0.3 and 1 μM) dissolved in DMSO (dimethyl sulfoxide, Sigma, Mo., USA) were added to the cells. The final concentration of DMSO was adjusted to 0.5%. The vehicle (0.5% DMSO) was used as control. […] The plates were incubated for 30 minutes at 37° C. in an atmosphere of 5% CO2. Finally, 20 μL (10 μg/mL) per well of LPS, (Escherchia coli 0127:B8, Sigma Chemical Co., St. Louis, Mo.) was added to the wells of the incubated plates, for a final concentration of 1 μg/mL. The plates were incubated at 37° C. for 5 hours in an atmosphere of 5% CO2. […] Supernatants were harvested and assayed for TNF-α, IL-1β, IL-6 and IL-8 by ELISA as described by the manufacturer. (OptiEIA ELISA sets, BD Biosciences, Pharmingen). The 50% inhibitory concentration (IC50) values were calculated by a nonlinear regression method using GraphPad software (Prism 3.03).

Compound	IC50 [µM]
CN1CC[C@@H](c2c(O)cc(O)c3c(=O)cc(-c4ccc([N+](=O)[O-])cc4Cl)oc23)[C@@H]1CO [Compound of example 5, (+)-trans-2-(2-Chloro-4-nitro-phenyl)-5,7-dihydroxy-8-(2-hydroxymethyl-1-methyl-pyrrolidin-3-yl)-chromen-4-one hydrochloride]	0.4
CN1CC[C@@H](c2c(O)cc(O)c3c(=O)cc(-c4ccccc4Cl)oc23)[C@@H]1CO [Compound of example 7, (+)-trans-2-(2-Chloro-phenyl)-5,7-dihydroxy-8-(2-hydroxymethyl-1-methyl-pyrrolidin-3-yl)-chromen-4-one hydrochloride]	0.2
CN1CC[C@@H](c2c(O)cc(O)c3c(=O)cc(-c4cc(F)ccc4Br)oc23)[C@@H]1CO [Compound of example 9, (+)-trans-2-(2-Bromo-5-fluoro-phenyl)-5,7-dihydroxy-8-(2-hydroxymethyl-1-methyl-pyrrolidin-3-yl)-chromen-4-one hydrochloride]	0.9
CN1CC[C@@H](c2c(O)cc(O)c3c(=O)cc(-c4ccc(C#N)cc4Cl)oc23)[C@@H]1CO [Compound of example 12, (+)-trans-2-(2-Chloro-4-cyano-phenyl)-5,7-dihydroxy-8-(2-hydroxymethyl-1-methyl-pyrrolidin-3-yl)-chromen-4-one hydrochloride]	1.5
CN1CC[C@@H](c2c(O)cc(O)c3c(=O)cc(-c4ccc([N+](=O)[O-])cc4Br)oc23)[C@@H]1CO [Compound of example 16, (+)-trans-2-(2-Bromo-4-nitro-phenyl)-5,7-dihydroxy-8-(2-hydroxymethyl-1-methyl-pyrrolidin-3-yl)-chromen-4-one hydrochloride]	0.3
CN1CC[C@@H](c2c(O)cc(O)c3c(=O)cc(-c4ccc(Cl)cc4Cl)oc23)[C@@H]1CO [Compound of example 18, (+)-trans-2-(2,4-Dichloro-phenyl)-5,7-dihydroxy-8-(2-hydroxymethyl-1-methyl-pyrrolidin-3-yl)-chromen-4-one hydrochloride]	0.3
CN1CC[C@@H](c2c(O)cc(O)c3c(=O)cc(-c4cc(F)ccc4Cl)oc23)[C@@H]1CO [Compound of example 20, (+)-trans-2-(2-Chloro-5-fluoro-phenyl)-5,7-dihydroxy-8-(2-hydroxymethyl-1-methyl-pyrrolidin-3-yl)-chromen-4-one hydrochloride]	0.7
CN1CC[C@@H](c2c(O)cc(O)c3c(=O)cc(-c4cccs4)oc23)[C@@H]1CO [Compound of example 22, (+)-trans-5,7-Dihydroxy-8-(2-hydroxymethyl-1-methyl-pyrrolidin-3-yl)-2-thiophen-2-yl-chromen-4-one hydrochloride]	2.3

Other lines, results leading:

IC50 [µM]	Compound
0.4	CN1CC[C@@H](c2c(O)cc(O)c3c(=O)cc(-c4cccc([N+](=O)[O-])c4)oc23)[C@@H]1CO [Compound of example 26, (+)-trans-5,7-dihydroxy-8-(2-hydroxymethyl-1-methyl-pyrrolidin-3-yl)-2-(3-nitrophenyl)-chromen-4-one hydrochloride]
4.1	CN1CC[C@@H](c2c(O)cc(O)c3c(=O)cc(-c4cccc(Br)c4Cl)oc23)[C@@H]1CO [Compound of example 30, (+)-trans-2-(3-Bromo-2-chloro-phenyl)-5,7-dihydroxy-8-(2-hydroxymethyl-1-methyl-pyrrolidin-3-yl)-chromen-4-one hydrochloride]
2.5	CN1CC[C@@H](c2c(O)cc(O)c3c(=O)cc(-c4cccc(Cl)c4)oc23)[C@@H]1CO [Compound of example 34, (+)-trans-2-(3-Chloro-phenyl)-5,7-dihydroxy-8-(2-hydroxymethyl-1-methyl-pyrrolidin-3-yl)-chromen-4-one hydrochloride]
1.3	CN1CC[C@@H](c2c(O)cc(O)c3c(=O)cc(-c4cccc([N+](=O)[O-])c4Cl)oc23)[C@@H]1CO [Compound of example 38, (+)-trans-2-(2-Chloro-3-nitro-phenyl)-5,7-dihydroxy-8-(2-hydroxymethyl-1-methyl-pyrrolidin-3-yl)-chromen-4-one hydrochloride]
2.4	CN1CC[C@@H](c2c(O)cc(O)c3c(=O)cc(-c4cccc(C(F)(F)F)c4Cl)oc23)[C@@H]1CO [Compound of example 42, (+)-trans-2-(2-Chloro-3-trifluoromethyl-phenyl)-5,7-dihydroxy-8-(2-hydroxymethyl-1-methyl-pyrrolidin-3-yl)-chromen-4-one hydrochloride]
0.5	Cc1cccc(-c2cc(=O)c3c(O)cc(O)c([C@@H]4CCN(C)[C@H]4CO)c3o2)c1Cl [Compound of example 46, (+)-trans-2-(2-Chloro-3-methyl-phenyl)-5,7-dihydroxy-8-(2-hydroxymethyl-1-methyl-pyrrolidin-3-yl)-chromen-4-one hydrochloride]
1.5	CN1CC[C@@H](c2c(O)cc(O)c3c(=O)cc(-c4cccc(Cl)c4Cl)oc23)[C@@H]1CO [Compound of example 58, (+)-trans-2-(2,3-Dichloro-phenyl)-5,7-dihydroxy-8-(2-hydroxymethyl-1-methyl-pyrrolidin-3-yl)-chromen-4-one hydrochloride]
1.3	CN1CC[C@@H](c2c(O)cc(O)c3c(=O)cc(-c4cccc(I)c4Cl)oc23)[C@@H]1CO [Compound of example 62, (+)-trans-2-(2-Chloro-3-iodo-phenyl)-5,7-dihydroxy-8-(2-hydroxymethyl-1-methyl-pyrrolidin-3-yl)-chromen-4-one hydrochloride]
0.9	CC(C)Nc1cccc(-c2cc(=O)c3c(O)cc(O)c([C@@H]4CCN(C)[C@H]4CO)c3o2)c1Cl [Compound of example 66, (+)-trans-2-(2-Chloro-3-isopropylamino-phenyl)-5,7-dihydroxy-8-(2-hydroxymethyl-1-methyl-pyrrolidin-3-yl)-chromen-4-one hydrochloride]
